Measured values taken from patent US12336981B2, “Compounds and compositions for the inhibition of NAMPT” (Valo Health, Inc., priority 2010, dated 2025).
Like-named read-outs stand apart in the source and are kept apart here.

Legend:
NAMPT = biological target: T1, NAMPT (Homo sapiens, UniProt P43490); assay: Biochemical inhibition assay: NAMPT enzymatic reaction, NMN quantified by mass spectrometry
T1 construct: His tag; host or cells: E. coli
Outline: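 Inhibition of E. coli-expressed His-tagged human NAMPT, measured as NMN formation by mass spectrometry after a 30 min room-temperature reaction containing 1 μM NAM, 100 μM PRPP and 2.5 mM ATP.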

A2780 cells = assay: In-vitro cell proliferation assay (SRB), A2780 cells; format: cell-based; conditions: Homo sapiens, A2780, 72 h, A2780 cells, 72 hours, read-out: A2780 IC50
Outline: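 Viable cells measured by SRB staining after 6% TCA fixation, absorbance 570 nm. Media-only background subtracted; % inhibition derived at two compound concentrations.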

[1] = NAMPT enzymatic assay, read-out: Biochem IC50
[2] = NAMPT enzymatic reaction, read-out: Biochem IC50

T1 sequence (P43490 whole entry): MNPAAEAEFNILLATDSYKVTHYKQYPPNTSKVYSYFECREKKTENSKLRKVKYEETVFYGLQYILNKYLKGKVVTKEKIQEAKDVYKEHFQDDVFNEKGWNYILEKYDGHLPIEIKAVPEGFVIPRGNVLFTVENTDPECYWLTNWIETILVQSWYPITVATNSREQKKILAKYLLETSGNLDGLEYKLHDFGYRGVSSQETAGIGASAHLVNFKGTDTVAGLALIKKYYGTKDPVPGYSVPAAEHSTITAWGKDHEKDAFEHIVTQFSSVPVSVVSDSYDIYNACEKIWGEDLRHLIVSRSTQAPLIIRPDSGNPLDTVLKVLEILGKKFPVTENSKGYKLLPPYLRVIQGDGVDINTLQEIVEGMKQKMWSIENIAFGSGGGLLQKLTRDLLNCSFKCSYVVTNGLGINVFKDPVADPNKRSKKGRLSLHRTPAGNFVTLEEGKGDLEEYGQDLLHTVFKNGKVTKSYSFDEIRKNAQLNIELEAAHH

Row | Structure (SMILES) | IC50 (NAMPT; [1]) [µM] | IC50 (A2780 cells; SRB) [nM] | IC50 (NAMPT; [2]) [µM] | IC50 (A2780 cells; SRB assay) [nM] | IC50 (NAMPT; Biochem IC50 uM) [µM]
1 | O=C(NCc1ccc(S(=O)(=O)c2cccc3c2OCO3)cc1)c1cc2ccncc2s1 [N-{[4-(2H-1,3-benzodioxole-4-sulfonyl)phenyl]methyl}thieno[2,3-c]pyridine-2-carboxamide] | 0.0033 | 7.2 | – | – | –
2 | CCCOc1ccc(S(=O)(=O)c2ccc(CNC(=O)c3cc4cnccc4[nH]3)cc2)c(C)c1 | – | 22.1 | 0.0305 | – | –
3 | COc1ccc(S(=O)(=O)c2ccc(CNC(=O)c3cc4ccncc4o3)cc2)c(C(F)(F)F)c1 | 0.0146 | 15.2 | – | – | –
4 | CCOc1ccc(S(=O)(=O)c2ccc(CNC(=O)c3cc4ccncc4s3)cc2)cc1F | – | 3.6 | 0.0089 | – | –
5 | COc1ccc(S(=O)(=O)c2ccc(CNC(=O)c3cc4ccncc4s3)cc2)cc1F [N-({4-[(3-fluoro-4-methoxybenzene)sulfonyl]phenyl}methyl)thieno[2,3-c]pyridine-2-carboxamide] | – | – | 0.005 | 2.5 | –
6 | O=C(NCc1ccc(S(=O)(=O)c2cc(Cl)cc(CO)c2)cc1)c1cnc2nccn2c1 | 0.0034 | 11.4 | – | – | –
7 | Cc1ccc(S(=O)(=O)c2ccc(CNC(=O)c3cc4cnccc4[nH]3)cc2)s1 [N-{[4-(5-methylthiophene-2-sulfonyl)phenyl]methyl}-1H-pyrrolo[3,2-c]pyridine-2-carboxamide] | – | – | 0.007 | 13 | –
8 | COc1cc(C)cc(S(=O)(=O)c2ccc(CNC(=O)c3cnc4nccn4c3)cc2)c1OC | – | 15.6 | 0.0042 | – | –
9 | Cc1ccc(Cl)cc1S(=O)(=O)c1ccc(CNC(=O)c2cc3ccncc3s2)cc1 | – | 6.6 | 0.0048 | – | –
10 | CC(=O)c1ccccc1S(=O)(=O)c1ccc(CNC(=O)c2cnc3nccn3c2)cc1 | – | 8.2 | 0.0025 | – | –
11 | O=C(NCc1ccc(S(=O)(=O)c2cccc(F)c2)cc1)c1cnc2nccn2c1 | – | 22.1 | 0.0019 | – | –
12 | Cc1c(F)cccc1S(=O)(=O)c1ccc(CNC(=O)c2cnc3nccn3c2)cc1 | – | 65.6 | 0.0081 | – | –
13 | COc1cc(C(F)(F)F)ccc1S(=O)(=O)c1ccc(CNC(=O)c2cc3ccncc3s2)cc1 [N-[(4-{[2-methoxy-4-(trifluoromethyl)benzene]sulfonyl}phenyl)methyl]thieno[2,3-c]pyridine-2-carboxamide] | 0.01 | 2.2 | 0.009 | 7.5 | –
14 | Cc1ccc(S(=O)(=O)c2ccc(CNC(=O)c3cc4ccncc4o3)cc2)c(Cl)c1 | – | 14.2 | 0.0141 | – | –
15 | CCCOc1ccc(S(=O)(=O)c2ccc(CNC(=O)c3cnc4[nH]ncc4c3)cc2)c(C)c1 | – | 79.4 | 0.0644 | – | –
16 | COc1ccc(F)cc1S(=O)(=O)c1ccc(CNC(=O)c2cc3ccncc3o2)cc1 | – | 12.4 | 0.0022 | – | –
17 | O=C(NCc1ccc(S(=O)(=O)c2ccc(F)c(OCC(F)(F)F)c2)cc1)c1cc2ccncc2s1 | 0.0033 | 11.8 | – | – | –
18 | Cc1cc(Cl)cnc1S(=O)(=O)c1ccc(CNC(=O)c2ccc3nccn3c2)cc1 [N-{[4-(5-chloro-3-methylpyridine-2-sulfonyl)phenyl]methyl}imidazo[1,2-a]pyridine-6-carboxamide] | 0.0188 | 8 | – | – | –
19 | O=C(NCc1ccc(S(=O)(=O)c2ccc(N3CCOCC3)nc2)cc1)c1cc2ccncc2s1 [N-({4-[6-(morpholin-4-yl)pyridine-3-sulfonyl]phenyl}methyl)thieno[2,3-c]pyridine-2-carboxamide] | – | 0.7 | – | – | 0.0041
20 | CCCCOc1cc(F)ccc1S(=O)(=O)c1ccc(CNC(=O)c2ccc3nccn3c2)cc1 | – | 6.2 | 0.0512 | – | –
21 | CC(C)COc1cc(F)cc(S(=O)(=O)c2ccc(CNC(=O)c3cnc4[nH]ncc4c3)cc2)c1 [N-[(4-{[3-fluoro-5-(2-methylpropoxy)benzene]sulfonyl}phenyl)methyl]-1H-pyrazolo[3,4-b]pyridine-5-carboxamide] | 0.0112 | 9.49 | – | – | –
22 | O=C(NCc1ccc(S(=O)(=O)c2cccc(C(F)(F)F)c2)cc1)c1ccc2ncsc2c1 | 0.006 | 548 | – | – | –
23 | O=C(NCc1ccc(S(=O)(=O)c2ccccn2)cc1)c1cc2ccncc2o1 [N-{[4-(pyridine-2-sulfonyl)phenyl]methyl}furo[2,3-c]pyridine-2-carboxamide] | 0.0551 | 87 | – | – | –
24 | CNC(=O)c1cccc(S(=O)(=O)c2ccc(CNC(=O)c3cnc4nccn4c3)cc2)c1 | 0.0037 | 100 to 1000 | – | – | –
25 | O=C(NCc1ccc(S(=O)(=O)N2CCCCC2)cc1)c1cnc2[nH]ncc2c1 [N-{[4-(piperidine-1-sulfonyl)phenyl]methyl}-1H-pyrazolo[3,4-b]pyridine-5-carboxamide] | – | – | 0.017 | 33 | –
